Experimental data published in patent US12384756B2, “Piperidinedione derivatives” (INNOCURE THERAPEUTICS, INC., priority 2021, dated 2025).
Where two headings read alike, the source gives them in different places.

Columns and labels:
Type in all cases: cell-based
[1] = system: Human breast cancer cell line [MDA-MB-231]; experiment: Anti-proliferative activity (WST-8) of BRD4 targeted PROTAC in MDA-MB-231; conditions: MDA-MB-231, 72 hours
Method: (§1) Human breast cancer cell line [MDA-MB-231] was cultured in RPMI medium with 10% petal bovine serum, penicillin [100 U/ml] and streptomycin [[…]]. The synthesized compound was prepared as a stock solution of 10 mM or 50 mM dissolved in DMSO [dimethyl sulfoxide], and it was sequentially diluted to treat the cell line.
In order to observe inhibition of cell growth, cells were aliquoted into concentrations of 5,000 cells/well at 96 well plates, and then were treated with samples prepared at various concentrations for 72 hours. The cell survival was calculated by steps of adding in each well […] of water soluble tetrazolium salt (WST-8) which produces formazon in response to dehydrogenase present in the electron transport chain in mitochondria, incubating for 2 hours, measuring the absorbance at 450 nm, and calculating by GraphicPad Prism 8.0 software.

[2] = target: T1, BRD4 (Homo sapiens, UniProt O60885); experiment: BRD4 protein degradation by western blot in MDA-MB-231 cells; parameters: BRD4 expressed in cells; endogenous in cells; host or cells: MDA-MB-231; conditions: MDA-MB-231, 24 hours; for DC50: 50% inhibition of protein expression, read-out: DC50 of BRD4-targeted PROTAC
Method: as §1
To evaluate the PROTAC's degradation ability to BRD4 expressed in cells, the cells were aliquoted into a 6 well plate at a concentration of 5×10^5 cells/ml, and then the sample was treated for 24 hours. In order to conduct western blotting assay to confirm protein expression, the cell treated with the compound was treated for 30 minutes with 70 μL of RIPA buffer wherein protease inhibitor is added. Then, cell lysate was collected on ice using a scraper and centrifuged at 4° C. 15,000 rpm for 30 minutes to obtain a supernatant containing protein. Then, SDS-PAGE is conducted for 10 μg of protein per each sample, and the protein is transferred to a membrane. The protein is reacted with antibodies of anti-BRD4, anti-tubulin and anti-GAPDH at 4° C. for 16 hours, and then, reacted with secondary antibodies at room temperature for 1 hour. The protein expression is confirmed using SUPERSIGNAL™ WEST PICO PLUS chemiluminescence substrate and image analyzer. The protein expression was normalized based on the expression value of β-tublin or GAPDH. The amount of protein expression in each sample was measured in % based on the sample treated with 0.1% DMSO vehicle which was set to 100%. The amount of protein expression was quantified using the IMAGE J PROGRAM. The change in the amount of protein expression due to the treatment of compound (DC50: the concentration of compounds where the 50% inhibition of protein expression is achieved) was calculated using […] PRISM 8.0 software.

[3] = target: T1, BRD4; experiment: BRD4 degradation by western blot in A549 cells; parameters: BRD4 expressed in cells; endogenous in cells
Method: The human lung cancer cell line A549 was purchased from the Korean Cell Line Bank.
5×10^5 cells were seeded for each well of the 6 well plate (SPL company), and the cells were cultured with a total of 1.5 mL of the culture medium volume. The cultured cells were treated with various concentrations (0 nM, 0.1 nM, 0.3 nM, 1 nM, 3 nM, 10 nM, 30 nM, 100 nM, 300 nM, 1000 nM, 3000 nM, 10000 nM) of PROTAC compound according to the present invention and cultured for 24 hours.
For cell lysis, a lysis buffer was added and cell lysate was obtained using a cell scraper.
Specifically, cells were treated with 70 μl of 1×RIPA buffer containing protease inhibitors. Cell lysate was collected on ice using a scraper and incubated for 30 minutes. Then, cells were centrifuged at 4° C. 15,000 rpm for 30 minutes to obtain a cell lysate.
The standard curve was obtained using BCA assay, and the protein mass in the lysate was quantified by substituting the standard curve. The mixture was incubated at 37° C. for 30 minutes using a sample solution of 1 μl and a BCA solution of 200 μl. The absorbance was measured at 562 nm. Samples were prepared by adding a sample buffer to reach 10 μg per well.
SDS-PAGE was conducted by setting a running time of 70 minutes at 110 V in a 4-15% Mini-PROTEAN TGX stain-free gel (15 wells). A transfer was conducted using a trans-blot turbo transfer system (Bio-rad). Blocking was conducted using a blocking-grade blocker (Bio-rad) for 1 hour. Then, it was washed with 1×TBS containing 0.1% tween 20, and reacted with anti-BRD4 antibody (1:3000) or anti-beta-tubulin antibody (1:3000) in bovine serum albumin as a primary antibody at 4° C. for 16 hours. After washing three times for 10 minutes with 1×TBS containing 0.1% tween 20, it was reacted with anti-rabbit antibody (1:10000) in the blotting-grade blocker as a secondary antibody at room temperature for 1 hour. Then, after washing three times for 10 minutes with 1×TBS containing 0.1% tween 20, detection was conducted with SUPERSIGNAL™ WEST PICO PLUS chemiluminescence substrate.
For result analysis, final blot data were obtained using an image analyzer (GE).
DC50^1): DC50 value is calculated by comparing band intensity with that of a sample which is not treated with a PROTAC compound as a controlled group.
DC50^2): DC50 value is calculated by comparing the band intensity relative to that of beta-tubulin with that of the controlled group.

[4] = Homo sapiens, WST-8, read-out: IC50 of BRD4-targeted PROTAC (cell proliferation)
[5] = Homo sapiens, read-out: concentration at which cancer cell proliferation is effectively inhibited

Row | Molecule | IC50 [1, 4] [nM] | DC50 [2] [nM] | IC50 ([1]; WST-8, read-out: IC50 of BRD4-targeted PROTAC (cell proliferation)) [nM] | IC50 [1, 5] [nM] | BRD4 degradation (in words) [2] | DC50 ([3]; A549, 24 hours; band intensity compared with untreated control; read-out: DC50 1)) [nM] | DC50 ([3]; A549, 24 hours; band intensity relative to beta-tubulin compared with control; read-out: DC50 2)) [nM]
1 | Cc1sc2c(c1C)C(c1ccc(Cl)cc1)=N[C@@H](CC(=O)NCCOCCOCCOCCn1cc(CNc3cccc4cnn(C5CCC(=O)NC5=O)c(=O)c34)nn1)c1nnc(C)n1-2 (stereo partly drawn) [Example 36, 2-[(9S)-7-(4-chlorophenyl)-4,5,13-trimethyl-3-thia-1,8,11,12-tetraazatricyclo[8.3.0.0^2,6]trideca-2(6),4,7,10,12-pentaen-9-yl]-N-{2-[2-(2-{2-[4-({[3-(2,6-dioxopiperidin-3-yl)-4-oxo-3,4-dihydrophthalazin-5-yl]amino}methyl)-1H-1,2,3-triazol-1-yl]ethoxy}ethoxy)ethoxy]ethyl}acetamide] | > 1000 | 663 |  |  |  |  | 
2 | Cc1sc2c(c1C)C(c1ccc(Cl)cc1)=N[C@@H](CC(=O)NCc1cn(CCOCCOCCOCCNc3cccc4c(=O)n(C5CCC(=O)NC5=O)ncc34)nn1)c1nnc(C)n1-2 (stereo partly drawn) [Example 34, 2-[(9S)-7-(4-chlorophenyl)-4,5,13-trimethyl-3-thia-1,8,11,12-tetraazatricyclo[8.3.0.0^2,6]trideca-2(6),4,7,10,12-pentaen-9-yl]-N-{[1-(2-{2-[2-(2-{[2-(2,6-dioxopiperidin-3-yl)-1-oxo-1,2-dihydrophthalazin-5-yl]amino}ethoxy)ethoxy]ethoxy}ethyl)-1H-1,2,3-triazol-4-yl]methyl}acetamide] | > 1000 | 38.6 |  |  |  |  | 
3 | N-(4-(2-(2,6-dioxopiperidin-3-yl)-1-oxo-1,2-dihydrophthalazin-6-yl)butyl)-2-((S)-2,3,9-trimethyl-4-phenyl-6H-thieno[3,2-f][1,2,4]triazolo[4,3-a][1,4]diazepin-6-yl)acetamide [Example 47] |  | 52.3 | 754 |  |  |  | 
4 | Cc1sc2c(c1C)C(c1ccc(Cl)cc1)=N[C@@H](CC(=O)Nc1cccc(OCCOCCOCCNc3cccc4c(C)nn(C5CCC(=O)NC5=O)c(=O)c34)c1)c1nnc(C)n1-2 (stereo partly drawn) [Example 39, 2-((S)-4-(4-chlorophenyl)-2,3,9-trimethyl-6H-thieno[3,2-f][1,2,4]triazolo[4,3-a][1,4]diazepin-6-yl)-N-(3-(2-(2-(2-((3-(2,6-dioxopiperidin-3-yl)-1-methyl-4-oxo-3,4-dihydrophthalazin-5-yl)amino)ethoxy)ethoxy)ethoxy)phenyl)acetamide] | < 1 | 0.575 |  | < 250 | effectively degraded |  | 
5 | Cc1sc2c(c1C)C(c1ccc(Cl)cc1)=N[C@@H](CC(=O)NCOCCOCCOCCNc1cccc3cnn(C4CCC(=O)NC4=O)c(=O)c13)c1nnc(C)n1-2 (stereo partly drawn) [Ex. 21, 2-((S)-4-(4-chlorophenyl)-2,3,9-trimethyl-6H-thieno[3,2-f][1,2,4]triazolo[4,3-a][1,4]diazepin-6-yl)-N-((2-(2-(2-((3-(2,6-dioxopiperidin-3-yl)-4-oxo-3,4-dihydrophthalazin-5-yl)amino)ethoxy)ethoxy)ethoxy)methyl)acetamide] |  |  |  |  |  | 1600 | 242
6 | Cc1sc2c(c1C)C(c1ccc(Cl)cc1)=N[C@@H](CC(=O)NCCN1CCN(c3ccc4c(=O)n(C5CCC(=O)NC5=O)ncc4c3)CC1)c1nnc(C)n1-2 (stereo partly drawn) [Example 48, 2-((S)-4-(4-chlorophenyl)-2,3,9-trimethyl-6H-thieno[3,2-f][1,2,4]triazolo[4,3-a][1,4]diazepin-6-yl)-N-(2-(4-(2-(2,6-dioxopiperidin-3-yl)-1-oxo-1,2-dihydrophthalazin-6-yl)piperazin-1-yl)ethyl)acetamide] | 2.15 | 5.9 |  | < 250 | effectively degraded |  | 
7 | Cc1sc2c(c1C)C(c1ccc(Cl)cc1)=N[C@@H](CC(=O)Nc1cccc(OCCOCCOCCNc3ccc4c(=O)n(C5CCC(=O)NC5=O)ncc4c3)c1)c1nnc(C)n1-2 (stereo partly drawn) [Example 41, 2-((S)-4-(4-chlorophenyl)-2,3,9-trimethyl-6H-thieno[3,2-f][1,2,4]triazolo[4,3-a][1,4]diazepin-6-yl)-N-(3-(2-(2-(2-((2-(2,6-dioxopiperidin-3-yl)-1-oxo-1,2-dihydrophthaazin-6-yl)amino)ethoxy)ethoxy)ethoxy)phenyl)acetamide] | 137 | 4.4 |  | < 250 | effectively degraded |  | 
8 | Cc1sc2c(c1C)C(c1ccc(Cl)cc1)=N[C@@H](CC(=O)NCC#Cc1ccc3c(=O)n(C4CCC(=O)NC4=O)ncc3c1)c1nnc(C)n1-2 (stereo partly drawn) [Example 40, 2-((S)-4-(4-chlorophenyl)-2,3,9-trimethyl-6H-thieno[3,2-f][1,2,4]triazolo[4,3-a][1,4]diazepin-6-yl)-N-(3-(2-(2,6-dioxopiperidin-3-yl)-1-oxo-1,2-dihydrophthalazin-6-yl)prop-2-yn-1-yl)acetamide] | 227 | 10.9 |  | < 250 | effectively degraded |  | 
9 | Cc1sc2c(c1C)C(c1ccc(Cl)cc1)=N[C@@H](CC(=O)NCCCN1CCN(CCCNc3cccc4cnn(C5CCC(=O)NC5=O)c(=O)c34)CC1)c1nnc(C)n1-2 (stereo partly drawn) [Example 38, 2-((S)-4-(4-chlorophenyl)-2,3,9-trimethyl-6H-thieno[3,2-f][1,2,4]triazolo[4,3-a][1,4]diazepin-6-yl)-N-(3-(4-(3-((3-(2,6-dioxopiperidin-3-yl)-4-oxo-3,4-dihydrophthalazin-5-yl)amino)propyl)piperazin-1-yl)propyl)acetamide] | 568 | 66.5 |  |  |  |  | 
10 | Cc1sc2c(c1C)C(c1ccc(Cl)cc1)=N[C@@H](CC(=O)Nc1ccc(OCCOCCOCCOCCNc3ccc4cnn(C5CCC(=O)NC5=O)c(=O)c4c3)cc1)c1nnc(C)n1-2 (stereo partly drawn) [Ex. 29, 2-((S)-4-(4-chlorophenyl)-2,3,9-trimethyl-6H-thieno[3,2-f][1,2,4]triazolo[4,3-a][1,4]diazepin-6-yl)-N-(4-(2-(2-(2-(2-((3-(2,6-dioxopiperidin-3-yl)-4-oxo-3,4-dihydrophthalazin-6-yl)amino)ethoxy)ethoxy)ethoxy)ethoxy)phenyl)acetamide] | 98.6 | 3.7 |  | < 250 | effectively degraded |  | 
